Reference: patent US11884675B2, “Heterocyclic compounds as triggering receptor expressed on myeloid cells 2 agonists and methods of use” (AMGEN INC., priority 2020, dated 2024)

Biological target: hTREM2 (Homo sapiens, UniProt Q9NZC2)
Assay: TREM2 activity by cellular Syk phosphorylation (AlphaScreen/AlphaLISA) in TREM2/DAP12-HEK cells, used for Examples 1-305
Type: cell-based
Set-up: expressed in transfected cells
Conditions: HEK293 Cells
Outline: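 Phospho-Syk (Tyr525/526) over total Syk quantified by AlphaScreen in lysates of cloned TREM2/DAP12-overexpressing HEK293 cells after 45 min compound treatment at room temperature, 1% final DMSO. Values expressed relative to 100 nM anti-TREM2 antibody (positive) and isotype IgG (negative) controls; curves fitted with 4-parameter logistic model.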

Sequence of hTREM2 (Q9NZC2 19-230): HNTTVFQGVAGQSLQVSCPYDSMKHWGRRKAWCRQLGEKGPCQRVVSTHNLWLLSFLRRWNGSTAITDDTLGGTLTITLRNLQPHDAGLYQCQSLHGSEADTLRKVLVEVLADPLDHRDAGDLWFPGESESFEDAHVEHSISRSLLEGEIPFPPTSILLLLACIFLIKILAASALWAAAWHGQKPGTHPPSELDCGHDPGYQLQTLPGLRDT
Sequence of hTREM2 (O43914 22-113 partner): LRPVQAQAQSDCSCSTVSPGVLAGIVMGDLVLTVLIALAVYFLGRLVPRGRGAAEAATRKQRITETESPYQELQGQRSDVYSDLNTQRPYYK

| EC50 [nM] | hTREM2 Emax | SMILES |
| --- | --- | --- |
| 50 to 500 | ++ (Emax>100 and ≤150) | Cc1nc2cc(N3CCO[C@@H](c4cnn(C)c4)C3)nc([C@H]3C[C@H](C(F)(F)F)C3)c2nc1C [Example 80, 2,3-dimethyl-7-((2S)-2-(1-methyl-1H-pyrazol-4-yl)-4-morpholinyl)-5-(trans-3-(trifluoromethyl)cyclobutyl)pyrido[3,4-b]pyrazine] |
| ≤ 50 | +++ (Emax>150 and ≤250) | Cc1ccc(-c2nc([C@H]3CCO[C@@H](c4cnn(C)c4)C3)nc3nc(C)c(C)cc23)c(F)c1 (single isomer, unassigned) [Example 203] |
| 50 to 500 | +++ (Emax>150 and ≤250) | Cc1cc([C@@H]2C[C@@H](c3nc(-c4ccc(Cl)cc4F)c4ccc(C)nc4n3)CCO2)ccn1 (single isomer, unassigned) [Example 220] |
| ≤ 50 | ++ (Emax>100 and ≤150) | Cc1cc([C@H]2CN(c3nc4nc(C)c(C)cc4c([C@H]4C[C@H](C(F)(F)F)C4)n3)CCO2)ccn1 [Example 115, 6,7-dimethyl-2-((2S)-2-(2-methyl-4-pyridinyl)-4-morpholinyl)-4-(trans-3-(trifluoromethyl)cyclobutyl)pyrido[2,3-d]pyrimidine] |
| 3000 to 100000 | – | Cc1nc2cc([C@H]3CCO[C@@H](c4cnn(C5CC5)c4)C3)nc(-c3ccc(Cl)cc3F)c2nc1C [Example 296, 5-(4-chloro-2-fluorophenyl)-7-((2R,4S)-2-(1-cyclopropyl-1H-pyrazol-4-yl)tetrahydro-2H-pyran-4-yl)-2,3-dimethylpyrido[3,4-b]pyrazine] |
| ≤ 50 | +++ (Emax>150 and ≤250) | Cc1ccc(-c2nc(N3CCO[C@@H](c4ccnc(C)c4)C3)nc3nc(C)cnc23)c(F)c1 [Example 10, 4-(2-fluoro-4-methylphenyl)-7-methyl-2-((2S)-2-(2-methyl-4-pyridinyl)-4-morpholinyl)pteridine] |
| ≤ 50 | +++ (Emax>150 and ≤250) | Cc1cc([C@H]2C[C@@H](c3nc(-c4ccc(Cl)cc4F)c4ncc(C)nc4n3)CCO2)ccn1 (single isomer, unassigned) [Example 171] |
| ≤ 50 | +++ (Emax>150 and ≤250) | Cc1ccc(-c2nc(N3CCO[C@@H](c4cnn(C)c4)C3)nc3nc(C)c(C)nc23)c(F)c1 [Example 37, 4-(2-fluoro-4-methylphenyl)-6,7-dimethyl-2-((2S)-2-(1-methyl-1H-pyrazol-4-yl)-4-morpholinyl)pteridine] |
| 500 to 3000 | ++ (Emax>100 and ≤150) | Cc1ncc([C@@H]2C[C@H](c3nc(-c4ccc(Cl)cc4F)c4nc(C)c(C)nc4n3)CCO2)cn1 [Example 282, 4-(4-chloro-2-fluorophenyl)-6,7-dimethyl-2-((2S,4R)-2-(2-methylpyrimidin-5-yl)tetrahydro-2H-pyran-4-yl)pteridine] |
| ≤ 50 | ++++ (Emax>250) | Cc1nc2nc([C@H]3CCO[C@@H](c4cnn(C)c4)C3)nc(-c3ccc(Cl)cc3F)c2nc1C (single isomer, unassigned) [Example 178] |
| ≤ 50 | ++++ (Emax>250) | Cc1cc2c(-c3ccc(Cl)cc3F)nc(N3CCO[C@@H](c4cnn(C)c4)C3)cc2nc1C [Example 152, 5-(4-chloro-2-fluorophenyl)-2,3-dimethyl-7-((2S)-2-(1-methyl-1H-pyrazol-4-yl)-4-morpholinyl)-1,6-naphthyridine] |
| 50 to 500 | ++++ (Emax>250) | Cc1ncc([C@H]2CN(c3nc(-c4ccc(Cl)cc4F)c4nc(C)c(C)nc4n3)CCO2)cn1 (single isomer, unassigned) [Example 24] |

| SMILES | EC50 [nM] | hTREM2 Emax |
| --- | --- | --- |
| Cc1cnc2c(-c3ccc(Cl)cc3F)nc(N3CCO[C@@H](c4cnn(C5COC5)c4)C3)cc2n1 [Example 129, 5-(4-chloro-2-fluorophenyl)-2-methyl-7((2S)-2-(1-(3-oxetanyl)-1H-pyrazol-4-yl)-4-morpholinyl) pyrido[3,4-b]pyrazine] | 50 to 500 | ++++ (Emax>250) |
